# Legend:
# [1] = test system: T98G cell (human glioblastoma) subcutaneous tumor; assay: Treatment experiment of subcutaneously T98G-transplanted model using [90Y]-(A8); type: in vivo, mouse; conditions: Dose 11.1 MBa, 1 dose
# Description: (§1) U87MG cells were subcutaneously transplanted at 1×10^7 cells/mouse to the right flank of Balb/c Slc-nu/nu (SLC Japan, Inc., male, 6 weeks old). After 2 weeks, mice whose tumors became 100 to 500 mm^3 were grouped. Phosphate-buffered saline (PBS) or the radiolabeled compound [90Y]-(P2) was administered to the tail veins of the mice, and their tumor volumes were measured. When the tumor volumes of the mice in the PBS group exceeded 2,000 mm^3, which is a humanistic endpoint, the antitumor effect was evaluated. The evaluation values were the rate of inhibition of tumor growth ((1−(Average tumor volume of the compound administration group−Average tumor volume of the compound administration group before administration)/(Average tumor volume of the PBS group−Average tumor volume of the PBS group before administration))×100 (provided that the rate of inhibition exceeding 100% was indicated as 100%)) and the number of individuals having a tumor volume equal to or smaller than that at the start of the experiment (the number of individuals having tumor regression).
# (§2) A mixture of a T98G cell suspension (human glioblastoma, 1×10^7 cells) and Matrigel (Becton, Dickinson and Company) in equal amounts was subcutaneously transplanted to the right flank of Balb/cAJcl-nu/nu (CLEA Japan, Inc., female, 6 weeks old). After 90 days, the mice were grouped when their tumors BECAME 100 to 400 mm^3. Phosphate-buffered saline (PBS) or the radiolabeled compound [^90Y]-(A8) was administered to the tail veins of the mice, and their tumor volumes were measured. The evaluation values were calculated in the same way as in Test Example 8 to evaluate the antitumor effect.
# [2] = test system: U87MG cells subcutaneous tumor; assay: Treatment experiment of subcutaneously U87MG-transplanted model using [90Y]-(A8); type: in vivo, mouse; conditions: 1 dose; for Rate of inhibition: 12 days after administration, above 100% indicated as 100%; for Tumor volume 12 days after administration / Tumor volume At start of administration: n 10, Mean + SD; for Tumor volume At start of administration: baseline; for The number of individuals having tumor regression: of n 10
# Description: as §1
# U87MG cells were subcutaneously transplanted at 1×10^7 cells/mouse to the right flank of Balb/cAJcl-nu/nu (CLEA Japan, Inc., male, 6 weeks old). After 2 weeks, mice whose tumors became 100 to 500 mm^3 were grouped. Phosphate-buffered saline (PBS) or the radiolabeled compound [^90Y]-(A8) was administered to the tail veins of the mice, and their tumor volumes were measured. The evaluation values were calculated in the same way as in Test Example 8 to evaluate the antitumor effect.
# [3] = Absorbed doses in each organ in humans calculated with OLINDA/EXM 1.0 from monkey organ distribution; type: in vivo; conditions: calculated with OLINDA/EXM 1.0 from monkey imaging with [111In]-(P2)
# Description: Blood kinetic parameters were calculated with OLINDA/EXM 1.0 from the blood concentration of radioactivity by blood collection over time from a cynomolgus monkey using [^111In]-(P2). Also, absorbed doses in each organ in the case of administration to humans were calculated with OLINDA/EXM 1.0 from organ distribution by imaging using [^111In]-(P2). The radiolabeled compound [^111In]-(P2) (98 MBq/[…]) was administered to a cynomolgus monkey (Hamri Co., Ltd., male, 3 years old, 3.4 kg) under anesthesia. After the administration, blood collection and imaging with a gamma camera were performed over time. The blood collection was carried out 10 minutes, 30 minutes, 60 minutes, 2 hours, 4 hours, 5 hours, 6 hours, 24 hours, 48 hours, 72 hours, and 144 hours after administration. The imaging was carried out 1, 2, 4, 6, 24, 48, 72, and 144 hours after administration with a gamma camera (Symbia, Siemens AG) to take planar images. The anesthesia was carried out using 20 mg/kg ketamine before administration of [^111In]-(P2) and maintained by inhalation anesthesia (2 to 3% isoflurane, 5 to 8 L/min) until the completion of the imaging at 6 hours after administration. At or after 24 hours after administration, blood collection and imaging were performed by the introduction of 20 mg/kg ketamine and 2 mg/kg xylazine. […] The blood kinetic parameters are shown below.
# [4] = test system: U87MG cells subcutaneous tumor; assay: Treatment experiment of subcutaneously U87MG-transplanted model using [90Y]-(P2); type: in vivo, mouse; conditions: 1 dose; for Rate of inhibition: 16 days after administration, above 100% indicated as 100%; for Tumor volume 16 days after administration / Tumor volume At start of administration: n 8, Mean ± SD; for Tumor volume At start of administration: baseline; for The number of individuals having tumor regression: of n 8
# Description: as §1
# [5] = test system: U87MG cells subcutaneous tumor; assay: Concentration of radioactivity in tumor of labeled compounds (Test Example 4); type: in vivo, mouse; conditions: tail vein, 111In 740 kBq, 64Cu and 90Y 500 kBq
# Description: U87MG cells were subcutaneously transplanted at 1×10^7 cells/mouse to the right flank of Balb/cAJcl-nu/nu (CLEA Japan, Inc. or Japan SLC, Inc., 6 to 9 weeks old). After 2 to 3 weeks, the mice were divided into groups each involving 3 individuals per point in time when their tumors became 200 to 500 mm^3. The ^111In-labeled compound (740 kBq) was administered to the tail veins of the mice.
# After a given time, the animals were sacrificed to extract their tumors. The weights of the tumors were measured, and the radioactivity was measured using a gamma counter to calculate the concentration of radioactivity in the tumors (% ID/g). In the same way as above, the concentration of radioactivity in the tumors (% ID/g) was calculated for the ^64Cu-labeled compound (500 kBq) and the ^90Y-labeled compound (500 kBq).
# [6] = Radiochemical purity after standing at room temperature; type: physicochemical; conditions: immediately after preparation and after standing at room temperature for 24 hours
# Description: To a mixed solution of compound (P2) (8.5 μg) and a 0.2 mol/L sodium acetate buffer solution (pH 4.0) (1.5 mL), a [^111In] indium chloride solution (80 MBq, 100 μL) was added. The mixture was heated at 100° C. for 15 minutes and then left at room temperature for 5 minutes to obtain radiolabeled compound [^111In]-(P2). […] Its radiochemical purity was 95% or more both immediately after preparation and after standing at room temperature for 24 hours.
# To a mixed solution of compound (P2) (79 μg), gentisic acid (1.8 mg), a 0.6 mol/L sodium acetate buffer solution (pH 4.0, 120 μL), and a 0.4 mol/L aqueous sodium hydroxide solution (24 μL), a [^90Y] yttrium chloride solution (700 MBq, 240 μL) was added. The mixture was heated at 100° C. for 20 minutes and then left at room temperature for 5 minutes to obtain radiolabeled compound [^90Y]-(P2). […] Its radiochemical purity was 95% or more both immediately after preparation and after standing at room temperature for 24 hours.
# To a mixed solution of compound (P2) ([…]) and a 0.2 mol/L sodium acetate buffer solution (pH 4.0, 219 μL), a [^64Cu] copper chloride solution (pH 5, 35 MBq, 55 μL) was added. The mixture was heated at 100° C. for 15 minutes and then left at room temperature for 5 minutes to obtain radiolabeled compound [^64Cu]-(P2). […] Its radiochemical purity was 90% or more both immediately after preparation and after standing at room temperature for 22 hours.
# To a mixed solution of compound (Aa7) (4.2 μg), gentisic acid (1 mg), and a 0.2 mol/L sodium acetate buffer solution (pH 4.0) (5.0 μL), [^64Cu] copper chloride in a 0.2 mol/L sodium acetate buffer solution (pH 4.0) (40 MBq, 155 μL) was added. The mixture was heated at 100° C. for 15 minutes and then left at room temperature for 5 minutes to obtain radiolabeled compound [^64Cu]-(Aa7). […] Its radiochemical purity was 90% or more both immediately after preparation and after standing at room temperature for 24 hours.
# [7] = test system: T98G cell (human glioblastoma) subcutaneous tumor; assay: Treatment experiment of subcutaneously T98G-transplanted model using [90Y]-(P2); type: in vivo, mouse; conditions: 1 dose; for Rate of inhibition: 13 days after administration, above 100% indicated as 100%; for Tumor volume 13 days after administration / Tumor volume At start of administration: n 6, Mean ± SD; for Tumor volume At start of administration: baseline; for The number of individuals having tumor regression: of n 6
# Description: as §1
# as §2, with “Balb/c Slc-nu/nu (SLC” for “Balb/cAJcl-nu/nu (CLEA”, “male,” for “female,”, “77” for “90”, “became 300” for “BECAME 100”, “1,200” for “400”, “[^90Y]-(P2)” for “[^90Y]-(A8)”
smiles,measurement,setting,value
Cc1cc(OCCCC(=O)NCCNC(=O)C(CS(=O)(=O)O)NC(=O)C(CS(=O)(=O)O)NC(=O)CN2CCN(CC(=O)[O-])CCN(CC(=O)[O-])CCN(CC(=O)[O-])CC2)cc(C)c1S(=O)(=O)NC(CNC(=O)c1ccc(CCc2ccc3c(n2)NCCC3)cc1)C(=O)O.[90Y+3] (stereo not drawn) [[^90Y]-(A8)],Rate of inhibition,"[1]; 22 days after administration, above 100% indicated as 100%",100%
same,Tumor volume 22 days after administration,"[1]; n 8, Mean ± SD",123 ± 60 mm^3
same,Tumor volume At start of administration,"[1]; n 8, Mean ± SD, baseline",201 ± 75 mm^3
same,The number of individuals having tumor regression,[1]; of n 8,6
same,Rate of inhibition,[2]; Dose 5.55 MBa,69%
same,Tumor volume 12 days after administration,[2]; Dose 5.55 MBa,759 ± 344 mm^3
same,Tumor volume At start of administration,[2]; Dose 5.55 MBa,239 ± 89 mm^3
same,The number of individuals having tumor regression,[2]; Dose 5.55 MBa,0
same,Rate of inhibition,[2]; Dose 11.1 MBa,100%
same,Tumor volume 12 days after administration,[2]; Dose 11.1 MBa,199 ± 88 mm^3
same,Tumor volume At start of administration,[2]; Dose 11.1 MBa,243 ± 101 mm^3
same,The number of individuals having tumor regression,[2]; Dose 11.1 MBa,7
same,Rate of inhibition,[2]; Dose 14.8 MBa,100%
same,Tumor volume 12 days after administration,[2]; Dose 14.8 MBa,251 ± 112 mm^3
same,Tumor volume At start of administration,[2]; Dose 14.8 MBa,251 ± 110 mm^3
same,The number of individuals having tumor regression,[2]; Dose 14.8 MBa,6
Cc1cc(OCCCC(=O)NCCNC(=O)[C@H](CS(=O)(=O)O)NC(=O)CN2CCN(CC(=O)[O-])CCN(CC(=O)[O-])CCN(CC(=O)[O-])CC2)cc(C)c1S(=O)(=O)N[C@@H](CNC(=O)CCCCc1ccc2c(n1)NCCC2)C(=O)O.[90Y+3] [[^90Y]-(P2)],"Absorbed dose, Brain",[3],1.96 mGy/MBq
same,"Absorbed dose, Kidney",[3],14.70 mGy/MBq
same,"Absorbed dose, Liver",[3],1.12 mGy/MBq
same,"Absorbed dose, Lung",[3],1.35 mGy/MBq
same,"Absorbed dose, Red bone marrow",[3],0.06 mGy/MBq
same,"Absorbed dose, Small intestine",[3],0.87 mGy/MBq
same,"Absorbed dose, Whole body",[3],0.27 mGy/MBq
same,Rate of inhibition,[4]; Dose 14.8 MBa,95%
same,Tumor volume 16 days after administration,[4]; Dose 14.8 MBa,429 ± 188 mm^3
same,Tumor volume At start of administration,[4]; Dose 14.8 MBa,351 ± 72 mm^3
same,The number of individuals having tumor regression,[4]; Dose 14.8 MBa,2
same,Rate of inhibition,[4]; Dose 22.2 MBa,97%
same,Tumor volume 16 days after administration,[4]; Dose 22.2 MBa,386 ± 142 mm^3
same,Tumor volume At start of administration,[4]; Dose 22.2 MBa,343 ± 88 mm^3
same,The number of individuals having tumor regression,[4]; Dose 22.2 MBa,2
same,Concentration of radioactivity in tumor,[5]; 4 hours later,12.52 % ID/g
same,Concentration of radioactivity in tumor,[5]; 24 hours later,15.29 % ID/g
same,radiochemical purity after standing,[6],≥ 95%
same,Rate of inhibition,[7]; Dose 22.2 MBa,82%
same,Tumor volume 13 days after administration,[7]; Dose 22.2 MBa,882 ± 399 mm^3
same,Tumor volume At start of administration,[7]; Dose 22.2 MBa,755 ± 293 mm^3
same,The number of individuals having tumor regression,[7]; Dose 22.2 MBa,1
same,Rate of inhibition,[7]; Dose 29.6 MBa,97%
same,Tumor volume 13 days after administration,[7]; Dose 29.6 MBa,755 ± 313 mm^3
same,Tumor volume At start of administration,[7]; Dose 29.6 MBa,736 ± 264 mm^3
same,The number of individuals having tumor regression,[7]; Dose 29.6 MBa,3

# Reference: patent US11426473B2, “Nitrogen-containing compound or salt thereof, or metal complex thereof” (FUJIFILM Corporation, priority 2013, dated 2022)
